Source: US20190055576A1, “USE OF HERBICIDE-TOLERANT PROTEIN” (BEIJING DABEINONG TECHNOLOGY GROUP CO., LTD., priority 2016, published 2019)

System: transgenic soybean plants (Gm cytoplasmic/chloroplastic ALT-1-01, ALT-2-01, ALT-3-01)
Assay: Sulfometuron-methyl tolerance of transgenic soybean plants, damage degree by leaf curl and growth point damage
Assay type: in vivo
Settings: 120 g ai/ha; for Average damage % 3DAT / Average damage % 7DAT / Average damage % 14DAT / Average damage % 21DAT: 4-fold field concentration; for Average damage % 3DAT: 3 days after spraying; for Average damage % 7DAT: 7 days after spraying; for Average damage % 14DAT: 14 days after spraying; for Average damage % 21DAT: 21 days after spraying
Source text: The herbicide tolerance effects of Gm cytoplasmic ALT-1-01 soybean plants, Gm chloroplastic ALT-1-01 soybean plants, Gm cytoplasmic ALT-2-01 soybean plants, Gm chloroplastic ALT-2-01 soybean plants, Gm cytoplasmic ALT-3-01 soybean plants, Gm chloroplastic ALT-3-01 soybean plants and wild-type soybean plants on Sulfometuron-methyl were detected (at seedling stage), respectively.
Gm cytoplasmic ALT-1-01 soybean plants, Gm chloroplastic ALT-1-01 soybean plants, Gm cytoplasmic ALT-2-01 soybean plants, Gm chloroplastic ALT-2-01 soybean plants, Gm cytoplasmic ALT-3-01 soybean plants, Gm chloroplastic ALT-3-01 soybean plants and wild-type soybean plants were respectively taken and sprayed with Sulfometuron-methyl (120 g ai/ha, 4-fold field concentration) and a blank solvent (water). The damage degree caused by the herbicide was measured for each plant according to the leaf curl degree and the growth point damage degree 3 days after spraying (3 DAT), 7 days after spraying (7 DAT), 14 days after spraying (14 DAT) and 21 days after spraying (21 DAT), respectively: considering conditions of leaves being flat as the untreated plants and growth points being intact as having a damage degree of 0%; considering conditions of veins being locally browned, new leaves being malformed and plant growth being slow as having a damage degree of 50%; and considering conditions of veins being purple to whole plant being dead and growth points being browned and dry as having a damage degree of 100%. There were 2 strains in Gm cytoplasmic ALT-1-01 soybean plants in total (S1 and S2), 2 strains in Gm chloroplastic ALT-1-01 soybean plants in total (S3 and S4), 2 strains in Gm cytoplasmic ALT-2-01 soybean plants in total (S5 and S6), 2 strains in Gm chloroplastic ALT-2-01 soybean plants in total (S7 and S8), 2 strains in Gm cytoplasmic ALT-3-01 soybean plants in total (S9 and S10), 2 strains in Gm chloroplastic ALT-3-01 soybean plants in total (S11 and S12), and 1 strain in wild-type soybean plants (CK1) in total; and 10-15 plants were selected from each strain and tested.

[1] = strain S1 (Gm cytoplasmic ALT-1-01 soybean)
[2] = strain S2 (Gm cytoplasmic ALT-1-01 soybean)
[3] = strain S3 (Gm chloroplastic ALT-1-01 soybean)
[4] = strain S4 (Gm chloroplastic ALT-1-01 soybean)
[5] = strain S5 (Gm cytoplasmic ALT-2-01 soybean)
[6] = strain S6 (Gm cytoplasmic ALT-2-01 soybean)
[7] = strain S7 (Gm chloroplastic ALT-2-01 soybean)
[8] = strain S8 (Gm chloroplastic ALT-2-01 soybean)
[9] = strain S9 (Gm cytoplasmic ALT-3-01 soybean)
[10] = strain S10 (Gm cytoplasmic ALT-3-01 soybean)
[11] = strain S11 (Gm chloroplastic ALT-3-01 soybean)
[12] = strain S12 (Gm chloroplastic ALT-3-01 soybean)

For `COC(=O)c1ccccc1S(=O)(=O)NC(=O)Nc1nc(C)cc(C)n1` [Sulfometuron-methyl, 2-(4,6-dimethylpyrimidine-2-amino-formamido-sulfonyl) methyl benzoate], the “Average damage % 3DAT” value [1] was 6%, the “Average damage % 7DAT” value [1] was 0% and the “Average damage % 14DAT” value [1] was 0%. For the same compound, the “Average damage % 21DAT” value [1] was 0%, the “Average damage % 3DAT” value [2] was 7% and the “Average damage % 7DAT” value [2] was 0%. For the same compound, the “Average damage % 14DAT” value [2] was 0%, the “Average damage % 21DAT” value [2] was 0% and the “Average damage % 3DAT” value [3] was 0%. The “Average damage % 7DAT” value [3] was 0%, the “Average damage % 14DAT” value [3] was 0% and the “Average damage % 21DAT” value [3] was 0%. The “Average damage % 3DAT” value [4] was 0%, the “Average damage % 7DAT” value [4] was 0% and the “Average damage % 14DAT” value [4] was 0%. The “Average damage % 21DAT” value [4] was 0%, the “Average damage % 3DAT” value [5] was 6% and the “Average damage % 7DAT” value [5] was 0%. The “Average damage % 14DAT” value [5] was 0%, the “Average damage % 21DAT” value [5] was 0% and the “Average damage % 3DAT” value [6] was 5%. The “Average damage % 7DAT” value [6] was 0%, the “Average damage % 14DAT” value [6] was 0% and the “Average damage % 21DAT” value [6] was 0%. For the same compound, the “Average damage % 3DAT” value [7] was 0%, the “Average damage % 7DAT” value [7] was 0% and the “Average damage % 14DAT” value [7] was 0%. The “Average damage % 21DAT” value [7] was 0%, the “Average damage % 3DAT” value [8] was 0% and the “Average damage % 7DAT” value [8] was 0%. For the same compound, the “Average damage % 14DAT” value [8] was 0%, the “Average damage % 21DAT” value [8] was 0% and the “Average damage % 3DAT” value [9] was 8%. For the same compound, the “Average damage % 7DAT” value [9] was 0%, the “Average damage % 14DAT” value [9] was 0% and the “Average damage % 21DAT” value [9] was 0%. For the same compound, the “Average damage % 3DAT” value [10] was 7%, the “Average damage % 7DAT” value [10] was 0% and the “Average damage % 14DAT” value [10] was 0%. For the same compound, the “Average damage % 21DAT” value [10] was 0%, the “Average damage % 3DAT” value [11] was 0% and the “Average damage % 7DAT” value [11] was 0%. The “Average damage % 14DAT” value [11] was 0%, the “Average damage % 21DAT” value [11] was 0% and the “Average damage % 3DAT” value [12] was 0%. For the same compound, the “Average damage % 7DAT” value [12] was 0%, the “Average damage % 14DAT” value [12] was 0% and the “Average damage % 21DAT” value [12] was 0%. For the same compound, the “herbicide tolerance conferred by the thifensulfuron hydrolase (ALT-1, ALT-2 and ALT-3)” value (transgenic soybean plants) was “conferred a high level of Sulfometuron-methyl herbicide tolerance”.
